Reference: patent US12629410B2, “Multi-antigenic peptide mimics of gonococcal lipo-oligosaccharide (LOS) epitopes” (priority 2019, dated 2026)
Bridges are numbered along the chain shown (N, C = ends).

Test system: N. gonorrhoeae strain FA1090
Test: Mouse vaginal colonization model (protection experiment)
Assay type: in vivo
Conditions: BALB/c n=14/group; TMCP2 50 μg + GLA-SE, 3 doses 2 weeks apart
Procedure: Use of animals in this study was performed in strict accordance with the recommendations in the Guide for the Care and Use of Laboratory Animals of the National Institutes of Health. The protocol was approved by the Institutional Animal Care and Use Committee (IACUC) at the University of Massachusetts Medical School. The BALB/c mouse model of vaginal colonization described by Jerse was used (25). Two weeks after the last immunization, mice in the diestrus phase of the estrous cycle were started on treatment (that day) with 0.1 mg PREMARIN® (Pfizer; a mixture of sodium estrone sulfate and sodium equilin sulfate also containing sodium sulfate conjugates of 17α-dihydroequilin, 17α-estradiol and 17β-dihydroequilin) in 200 μl of water, given subcutaneously on each of three days; −2, 0 and +2 days (before, the day of and after gonococcal inoculation) to prolong the estrus phase of the reproductive cycle and promote susceptibility to N. gonorrhoeae infection. […]
Experiments that compared clearance of N. gonorrhoeae in independent groups of mice estimated and tested three characteristics of the data (13): 1) time to clearance; 2) longitudinal trends in mean log10 CFU; 3) and the cumulative CFU as area under the curve (AUC). […] A quadratic or cubic function in time was determined to provide the best fit; random slopes were linear in time. […]

[(CH2-CO-GPIPVLDENGLFAPGPC)-K-OH]4 ({CH2CO}-GPIPVLDENGLFAPGPCK-OH; thioether N-17; also: tetrameric MAP) [TMCP2]
gonococcal colonization, biweekly schedule: effectively attenuated gonococcal colonization
